The target of the experiment is T1, Fatty-acid amide hydrolase 1 [30-579] (Rattus norvegicus, UniProt P97612).
T1 construct: 30-579
T1 sequence (P97612 whole entry): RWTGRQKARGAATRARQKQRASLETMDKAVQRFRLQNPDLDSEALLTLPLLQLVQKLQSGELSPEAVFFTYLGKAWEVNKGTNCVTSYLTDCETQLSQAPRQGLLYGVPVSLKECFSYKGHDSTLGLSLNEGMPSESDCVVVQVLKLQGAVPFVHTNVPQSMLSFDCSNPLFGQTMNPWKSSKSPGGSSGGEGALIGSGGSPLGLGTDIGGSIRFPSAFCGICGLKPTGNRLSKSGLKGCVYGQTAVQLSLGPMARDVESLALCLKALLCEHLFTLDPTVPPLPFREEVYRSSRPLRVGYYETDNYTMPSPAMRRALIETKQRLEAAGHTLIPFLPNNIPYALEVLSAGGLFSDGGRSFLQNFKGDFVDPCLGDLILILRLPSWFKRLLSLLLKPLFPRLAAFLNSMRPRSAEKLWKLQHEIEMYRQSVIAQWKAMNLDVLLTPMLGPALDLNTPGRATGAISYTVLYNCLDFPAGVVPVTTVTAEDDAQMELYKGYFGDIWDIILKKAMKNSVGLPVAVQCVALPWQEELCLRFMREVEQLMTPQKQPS
As to the kind of experiment: FAAH Inhibition Assay. The conditions noted are these: pH 9; 37 °C. The protocol:
The effect of the test compounds on the enzymatic hydrolysis of [3H]anandamide was evaluated by using rat brain homogenate preparations. [3H]Ethanolamine produced from [3H]AEA hydrolysis was used to calculate FAAH activity and was measured by scintillation counting of the aqueous phase after extraction of the incubation mixture. Data are expressed as the concentration exerting a half maximal inhibition (IC50).

A word on the IC50: it is the point on the concentration scale where inhibition reaches its midpoint. Regarding `O=C1N(c2ccccc2)C(=S)NC1(c1ccccc1)c1ccccc1` [3,5,5-triphenyl-2-sulfanylideneimidazolidin-4-one], the half-maximal inhibitory concentration (IC50) was determined as 29.5 µM. Regarding `C#CCCCCCCCCCNC(=O)Oc1cccc(-c2cccc(C(N)=O)c2)c1` [3-(3-carbamoylphenyl)phenyl N-(undec-10-yn-1-yl)carbamate], the half-inhibitory concentration (IC50) was found to be 0.01 µM.

`CCCCCCN1C(=O)C(c2ccccc2)(c2ccccc2)NC1=S` [3-hexyl-5,5-diphenyl-2-sulfanylideneimidazolidin-4-one] returned an IC50 of 4.47 µM. In turn, `CCCCCCN1C(=O)NC(c2ccccc2)(c2ccccc2)C1=O` [3-hexyl-5,5-diphenylimidazolidine-2,4-dione] returned an IC50 of 9.55 µM. In turn, `CCCCCCCCN1C(=O)C(c2ccccc2)(c2ccccc2)NC1=S` [3-octyl-5,5-diphenyl-2-sulfanylideneimidazolidin-4-one] had an IC50 of 3.02 µM.

Take `CCCCCCCCN1C(=O)C(c2ccc(Br)cc2)(c2ccc(Br)cc2)NC1=S` [5,5-bis(4-bromophenyl)-3-octyl-2-sulfanylideneimidazolidin-4-one]: half-maximal inhibition (IC50) was put at 589 µM. To `O=C(CCCCCCc1ccccc1)c1nc2ncccc2o1` [7-phenyl-1-{pyrido[2,3-d][1,3]oxazol-2-yl}heptan-1-one] belongs 0.000316 µM.

Values taken from BindingDB's records for doi:10.1016/j.bmcl.2006.06.087 (Fundp, 2006).
